From patent US12023390B2, “Isomerically pure 18F-labelled tetrahydrofolates” (MERCK PATENT GMBH, priority 2017, dated 2024)
Read-outs that look alike come from different tables or passages of the source. One block for each compound: values may come before it.

Tests used:
[1] = Distribution coefficient (log D7.4), shake flask method; type: physicochemical; conditions: n-octanol / phosphate buffer pH 7.4, room temperature
[2] = tested on: FR-positive KB cells; test: Cell uptake and internalization using FR-positive KB cells; type: cell-based
Experimental: (§1) In order to investigate FR-specific cell uptake and internalization, cell uptake and internalization of 6R-[^18F]1 and 6S-[^18F]1 were carried out using FR-positive KB cells. Cell uptake increased constantly over time for both diastereoisomers resulting in an uptake of about 60% (calculated per 0.3 mg of protein) of total added radioactivity after 3 h of incubation at 37° C. (FIG. 22).

[3] = Metabolite studies / in vivo stability (radio-UPLC of blood plasma, liver, urine); parameters: species or system mice
Experimental: as §1
The folate radiotracer 6S/6R-[^18F]5 (1:1 ratio, 53.7-52.3 MBq; 0.62-1.15 nmol) were intravenously injected into mice in order to determine the in vivo stability of the tracers. […] Ice-cold methanol containing 10 mg/mL 2-mercaptoethanol and 0.025% (v/v) ammonium hydroxide was added to the blood plasma, homogenized liver and urine in order to precipitate the proteins.^6 After centrifugation, the supernatants of the blood plasma, liver and urine samples were analyzed by radio-UPLC (FIG. 4).

[4] = biological target: T1, RT16 (FR-α) (Homo sapiens, UniProt P15328); test: Cell uptake and internalization in FR-α transfected CHO cells (RT16); type: cell-based
T1 construct: expressed in transfected cells; host or cells: CHO cells (RT16)
T1 sequence (P15328 25-234): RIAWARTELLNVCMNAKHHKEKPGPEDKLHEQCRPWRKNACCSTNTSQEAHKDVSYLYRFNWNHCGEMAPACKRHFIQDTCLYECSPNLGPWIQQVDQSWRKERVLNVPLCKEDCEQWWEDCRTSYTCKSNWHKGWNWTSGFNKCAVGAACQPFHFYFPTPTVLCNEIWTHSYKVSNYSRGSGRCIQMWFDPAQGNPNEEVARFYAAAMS
Experimental: (§2) The uptake and internalization of the oxidized (^18F-AzaFol) and reduced ^18F-folates (6S-isomer and 6R-isomer of ^18F-5-Me-Aza-THF) in D4 and RT16 cells which express the FR-α and FR-β, […] was studied. Both cell lines were kindly provided by Larry Matherly Wayne State University, Detroit, U.S.; Golani et al., J Med Chem, 2016, 59, 7856.
The internalized fraction of the radiotracers reached 8-10% after 1 h and increased slightly up to 9-12% after 3 h incubation.

[5] = biological target: T2, D4 (FR-β) (Homo sapiens, UniProt P14207); test: Cell uptake and internalization in FR-β transfected CHO cells (D4); type: cell-based; conditions: for uptake into D4 cells (in words): D4 (FR-β) cells; for internalized fraction / uptake: D4 cells
T2 construct: expressed in transfected cells; host or cells: CHO cells (D4)
T2 sequence (P14207 17-230): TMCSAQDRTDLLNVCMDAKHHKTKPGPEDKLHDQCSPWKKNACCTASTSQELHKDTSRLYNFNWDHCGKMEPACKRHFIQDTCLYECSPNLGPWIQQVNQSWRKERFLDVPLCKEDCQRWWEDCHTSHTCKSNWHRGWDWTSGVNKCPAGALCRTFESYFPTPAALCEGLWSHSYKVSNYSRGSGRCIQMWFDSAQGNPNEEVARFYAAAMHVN
Experimental: as §2
When using D4 cells that express the FR-β, the uptake of ^18F-AzaFol and the 6S-isomer of the reduced radiotracer reached approximately 70% after 1 h incubation and 80% after 3 h incubation. The internalized fraction of ^18F-AzaFol and the 6S-isomer of the reduced version was 20% and 12%, respectively, after 1 h incubation. These numbers increased slightly when the incubation time was extended to 3 h. […] No change was observed after additional two hours of incubation.

[6] = tested on: KB tumor xenografts
[7] = tested on: KB tumor-bearing mice; test: Biodistribution studies in KB tumor-bearing mice
[8] = biological target: T3, FR-α (Homo sapiens, UniProt P15328); test: Displacement assay with [^3H]folic acid using KB cells; type: binding; conditions: for fold lower affinity to the FR-α compared to the oxidized form: versus 3′-aza-2′-fluorofolic acid
T3 construct: endogenous in cells; host or cells: KB cells
T3 sequence (P15328 25-234): as the sequence (P15328 25-234) above

[9] = KB tumor-bearing mice, 30 min p.i.
[10] = KB tumor-bearing mice, 30 min p.i., ratio
[11] = KB tumor-bearing mice, 60 min p.i.
[12] = KB tumor-bearing mice, 60 min p.i. & Folic Acid (100 μg 10 min prior)
[13] = KB tumor-bearing mice, 60 min p.i., ratio
[14] = KB tumor-bearing mice, 90 min p.i.
[15] = KB tumor-bearing mice, 90 min p.i., ratio
[16] = KB tumor-bearing mice, 90 min p.i., listed as 6R-form
[17] = KB tumor-bearing mice, 90 min p.i., listed as 6R-isomer
[18] = KB cells, displacement of [^3H]folic acid, n = 3

Compound: Nc1nc2ncc(CNc3ccc(C(=O)N[C@@H](CCC(=O)O)C(=O)O)c(F)n3)nc2c(=O)[nH]1 [3′-aza-2′-[^18F]fluorofolic acid, reference compound]
- IC50 [8, 18]: 1.4 ± 0.5 nM

Compound: Nc1nc2ncc(CNc3ccc(C(=O)N[C@@H](CCC(=O)O)C(=O)O)c([18F])n3)nc2c(=O)[nH]1 [3′-aza-2′-[^18F]fluorofolic acid, reference compound]
- in vivo stability (radiometabolites) ([3]; comparison tracer): radiometabolites in the liver were detected
- uptake into RT16 cells (in words) [4]: significant uptake
- uptake into D4 cells (in words) [5]: significant uptake
- internalized fraction ([5]; 1 h incubation): 20%
- uptake ([5]; 1 h incubation): approximately 70%
- uptake ([5]; 3 h incubation): ~80%

Compound: CN1c2c(nc(N)[nH]c2=O)NCC1CNc1ccc(C(=O)NC(CCC(=O)O)C(=O)O)c(F)n1 (stereo not drawn) [Compound 6R-1, 6R-3′-Aza-2′-Fluoro-5-Methyltetrahydrofolate]
- IC50 [8]: 27.1 ± 3.7 nM
- fold lower affinity to the FR-α compared to the oxidized form [8]: about 17 fold

Compound: CN1c2c(nc(N)[nH]c2=O)NC[C@H]1CNc1ccc(C(=O)N[C@@H](CCC(=O)O)C(=O)O)cc1 [Compound 6R-5-MTHF, 6R-5-MTHF, reference compound]
- IC50 [8, 18]: 25.8 ± 5.8 nM

Compound: CN1c2c([nH]c(N)nc2=O)NC[C@@H]1CNc1ccc(C(=O)N[C@@H](CCC(=O)O)C(=O)O)cc1 [Compound 6S-5-MTHF, 6S-5-MTHF, reference compound]
- IC50 [8, 18]: 20.6 ± 0.4 nM

Continued, in another order:

- logD7.4 [1]: −4.6 ± 0.1
- in vivo stability ([3]; samples taken p.i.): Only intact parent compounds were found
- uptake into RT16 cells (in words) [4]: higher uptake
- uptake into D4 cells (in words) [5]: very low
- internalized fraction ([5]; 1 h incubation): about 1%
- uptake ([5]; 1 h incubation): 3%
- Biodistribution: Blood [7, 9]: 3.13 ± 0.31 % IA/g
- Biodistribution: Bone [7, 9]: 2.73 ± 0.14 % IA/g
- Biodistribution: Feaces [7, 9]: 12.2 ± 3.54 % IA/g
- Biodistribution: Gall Bladder [7, 9]: 37.5 ± 11.7 % IA/g
- Biodistribution: Heart [7, 9]: 2.75 ± 0.33 % IA/g
- Biodistribution: Intestines [7, 9]: 7.68 ± 1.28 % IA/g
- Biodistribution: KB Tumor [7, 9]: 13.3±1.80 % IA/g
- Biodistribution: Kidneys [7, 9]: 34.5 ± 2.45 % IA/g
- Biodistribution: Liver [7, 9]: 14.3 ± 1.36 % IA/g
- Biodistribution: Lung [7, 9]: 3.37 ± 0.32 % IA/g
- Biodistribution: Muscle [7, 9]: 1.54 ± 0.13 % IA/g
- Biodistribution: Salivary glands [7, 9]: 7.16 ± 0.51 % IA/g
- Biodistribution: Spleen [7, 9]: 8.25 ± 0.96 % IA/g
- Biodistribution: Stomach [7, 9]: 2.20 ± 0.23 % IA/g
- Tu-to-blood [7, 10]: 4.27 ± 0.61
- Tu-to-liver [7, 10]: 0.94 ± 0.14
- Biodistribution: Kidneys ([7]; KB tumor-bearing mice, 30 min p.i., listed as 6R-form): 34.5±2.45 % IA/g
- Biodistribution: Liver ([7]; KB tumor-bearing mice, 30 min p.i., listed as 6R-tracer): 14.3±1.36 % IA/g
- Biodistribution: Blood [7, 11]: 2.16 ± 0.25 % IA/g
- Biodistribution: Bone [7, 11]: 2.43 ± 0.10 % IA/g
- Biodistribution: Feaces [7, 11]: 17.8 ± 5.09 % IA/g
- Biodistribution: Gall Bladder [7, 11]: 39.0 ± 22.17 % IA/g
- Biodistribution: Heart [7, 11]: 2.38 ± 0.18 % IA/g
- Biodistribution: Intestines [7, 11]: 6.93 ± 1.06 % IA/g
- Biodistribution: KB Tumor [7, 11]: 18.1 ± 2.86 % IA/g
- Biodistribution: Kidneys [7, 11]: 27.3 ± 3.07 % IA/g
- Biodistribution: Liver [7, 11]: 14.1 ± 0.80 % IA/g
- Biodistribution: Lung [7, 11]: 2.80 ± 0.29 % IA/g
- Biodistribution: Muscle [7, 11]: 1.36 ± 0.15 % IA/g
- Biodistribution: Salivary glands [7, 11]: 6.49 ± 0.93 % IA/g
- Biodistribution: Spleen [7, 11]: 8.25 ± 0.88 % IA/g
- Biodistribution: Stomach [7, 11]: 2.35 ± 0.49 % IA/g
- Biodistribution: Blood [7, 12]: 1.52 ± 0.43 % IA/g
- Biodistribution: Bone [7, 12]: 1.51 ± 0.34 % IA/g
- Biodistribution: Feaces [7, 12]: 15.2 ± 1.75 % IA/g
- Biodistribution: Gall Bladder [7, 12]: 26.5 ± 16.6 % IA/g
- Biodistribution: Heart [7, 12]: 1.60 ± 0.46 % IA/g
- Biodistribution: Intestines [7, 12]: 5.23 ± 0.73 % IA/g
- Biodistribution: KB Tumor [7, 12]: 3.41 ± 0.88 % IA/g
- Biodistribution: Kidneys [7, 12]: 4.80 ± 1.94 % IA/g
- Biodistribution: Liver [7, 12]: 9.64 ± 1.55 % IA/g
- Biodistribution: Lung [7, 12]: 1.73 ± 0.43 % IA/g
- Biodistribution: Muscle [7, 12]: 1.05 ± 0.42 % IA/g
- Biodistribution: Salivary glands [7, 12]: 2.61 ± 0.70 % IA/g
- Biodistribution: Spleen [7, 12]: 3.89 ± 0.40 % IA/g
- Biodistribution: Stomach [7, 12]: 2.02 ± 0.52 % IA/g
- Tu-to-blood [7, 13]: 8.47 ± 1.62
- Tu-to-kidney [7, 13]: 0.67 ± 0.14
- Tu-to-liver [7, 13]: 1.29 ± 0.18
- Biodistribution: Blood [7, 14]: 1.92 ± 0.19 % IA/g
- Biodistribution: Bone [7, 14]: 3.53 ± 0.90 % IA/g
- Biodistribution: Feaces [7, 14]: 13.1 ± 6.07 % IA/g
- Biodistribution: Gall Bladder [7, 14]: 56.7 ± 13.2 % IA/g
- Biodistribution: Heart [7, 14]: 2.39 ± 0.47 % IA/g
- Biodistribution: Intestines [7, 14]: 8.01 ± 2.72 % IA/g
- Biodistribution: KB Tumor [7, 14]: 23.9 ± 2.74 % IA/g
- Biodistribution: Kidneys [7, 14]: 29.8 ± 7.46 % IA/g
- Biodistribution: Liver [7, 14]: 16.8 ± 3.58 % IA/g
- Biodistribution: Lung [7, 14]: 2.92 ± 0.53 % IA/g
- Biodistribution: Muscle [7, 14]: 1.48 ± 0.31 % IA/g
- Biodistribution: Salivary glands [7, 14]: 7.31 ± 1.17 % IA/g
- Biodistribution: Spleen [7, 14]: 13.0 ± 4.14 % IA/g
- Biodistribution: Stomach [7, 14]: 2.51 ± 0.42 % IA/g
- Tu-to-blood [7, 15]: 12.5 ± 1.46
- Tu-to-liver [7, 15]: 1.46 ± 0.26
- Biodistribution: Kidneys [7, 16]: 29.8±7.46 % IA/g
- Biodistribution: Liver [7, 16]: 16.8±3.58 % IA/g
- Biodistribution: Salivary glands [7, 16]: 7.31±1.17 % IA/g
- Biodistribution: KB Tumor [7, 17]: 23.9±2.74 % IA/g
- Biodistribution: Liver [7, 17]: 16.8±3.58 % IA/g
- Biodistribution: Spleen [7, 17]: 13.0±4.14 % IA/g
- Specificity of tumor binding ([7]; blocking by pre-injection of folic acid): 85%
- factor of increase of tumor-to-kidney ratio ([7]; from 30 min p.i. to 90 min p.i.): 2.1
Compound: 6R-3′-aza-2′-[^18F]fluoro-5-MTHF [6R-[^18F]1]
- internalized activity ([2]; 37° C.): around 8%
- cell uptake (% of total added radioactivity) ([2]; 3 h incubation at 37° C., calculated per 0.3 mg of protein): about 60%
- PET/CT: KB tumor xenograft uptake ([6]; already 1 h p.i.): High KB tumor xenograft uptake
- PET/CT: blocking studies, uptake in all FR-positive tissues ([6]; folic acid injected 10 minutes prior to radiotracer): remarkably reduced uptake

- IC50 [8]: 23.8 ± 4 nM
- fold lower affinity to the FR-α compared to the oxidized form [8]: about 17 fold
Compound: CN1c2c(nc(N)[nH]c2=O)NC[C@H]1CNc1ccc(C(=O)N[C@@H](CCC(=O)O)C(=O)O)c(F)n1 [Compound 6S-1, 6S-3′-Aza-2′-Fluoro-5-Methyltetrahydrofolate]
